Assay: Inhibition of dog kidney Sodium/potassium-transporting ATPase by ELISA
Design: species or system Canis lupus familiaris

Row | SMILES | IC50
1 | C[C@]12C[C@@H](O)[C@H]3[C@@H](CC[C@]4(O)C[C@@H](OC(=O)CCCCCCCCCCCO)CC[C@]34CO)[C@@]1(O)CC[C@@H]2c1ccc(=O)oc1 | 120 nM
2 | C[C@]12C[C@@H](O)[C@H]3[C@@H](CC[C@]4(O)C[C@@H](OC(=O)CCCCC/C=C\CCCCCCO)CC[C@]34CO)[C@@]1(O)CC[C@@H]2c1ccc(=O)oc1 | 100 nM
3 | C[C@]12C[C@@H](O)[C@H]3[C@@H](CC[C@]4(O)C[C@@H](OC(=O)CCCCCCCCCCCCCO)CC[C@]34CO)[C@@]1(O)CC[C@@H]2c1ccc(=O)oc1 | 100 nM
4 | C[C@]12C[C@@H](O)[C@H]3[C@@H](CC[C@]4(O)C[C@@H](O)CC[C@]34CO)[C@@]1(O)CC[C@@H]2c1ccc(=O)oc1 | 120 nM

Source: ChEMBL document CHEMBL1151320, “Isolation and characterization of novel endogenous digitalis-like factors in the ovary of the giant toad, Bufo marinus” (J Nat Prod, 1998)
